Measurements taken from PubChem BioAssay (NCI).
Where “and” joins values, the source holds several entries; their conditions need not be identical. Equal values may be shown once.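 Test compounds were applied to cells in 96-well plates for 48 hours at 5 doses. GI50 is the concentration that inhibits growth by half. TGI marks complete inhibition of growth.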

How the values were obtained:
Assay in all cases: NCI tumour cell line growth inhibition, 48 h
HS 578T breast = system: HS 578T breast
MDA-MB-231 breast = system: MDA-MB-231 breast
OVCAR-4 ovarian = system: OVCAR-4 ovarian
PC-3 prostate = system: PC-3 prostate
RPMI-8226 leukemia = system: RPMI-8226 leukemia
SF-268 CNS = system: SF-268 CNS
SF-295 CNS = system: SF-295 CNS
SF-539 CNS = system: SF-539 CNS
T-47D breast = system: T-47D breast
UACC-257 melanoma = system: UACC-257 melanoma

SMILES | GI50 (HS 578T breast) | TGI (HS 578T breast) | GI50 (MDA-MB-231 breast) | TGI (MDA-MB-231 breast) | GI50 (OVCAR-4 ovarian) | TGI (OVCAR-4 ovarian) [µM] | GI50 (PC-3 prostate) [µM] | TGI (PC-3 prostate) | GI50 (RPMI-8226 leukemia) [µM] | TGI (RPMI-8226 leukemia) [µM] | GI50 (SF-268 CNS) [µM] | TGI (SF-268 CNS) [µM] | GI50 (SF-295 CNS) | TGI (SF-295 CNS) [µM] | GI50 (SF-539 CNS) | TGI (SF-539 CNS) | GI50 (T-47D breast) [µM] | TGI (T-47D breast) [µM] | GI50 (UACC-257 melanoma) | TGI (UACC-257 melanoma)
Cn1cccc1-c1cc(-c2ccc(Br)cc2)nc(N)c1C#N | > 100 µM | > 100 µM | 69.9 µM | > 100 µM | 77.2 µM | > 100 | > 100 | > 100 µM | 78.7 | > 100 | > 100 | > 100 | > 100 µM | > 100 | > 100 µM | > 100 µM | > 100 | > 100 | > 100 µM | > 100 µM
O=[N+]([O-])c1ccc2[nH]cc(-c3c4ccccc4cc4[nH]c5ccc([N+](=O)[O-])cc5c34)c2c1 | 2.35 µM | 8.19 µM | 2.27 µM | 5.83 µM | 1.57 µM | 3.02 | 1.9 | 4.43 µM | 2.27 | 6.32 | 2.66 | 9.57 | 1.63 µM | 3.73 | 2 µM | 4.98 µM | 1.71 | 4.74 | 2.45 µM | 7.13 µM
O=C1c2cccnc2-c2nc(-c3ccc([N+](=O)[O-])cc3)cc3c2c1nc1ccccc13 | 4.1 µM | 23.6 µM | 7.97 µM | > 100 µM | 13.4 µM | 30.7 | 3.95 | > 100 µM | 8.88 | 71.5 | 3.08 | 19.8 | 4.47 µM | 15.4 | 3.05 µM | 11.3 µM | 10.6 | 54.9 | 2.21 µM | 7.32 µM
O=C(O)/C(Cl)=C(/Cl)C(=O)Nc1cccc(Cl)c1 | – | 71.6 µM | – | 28.1 µM | – | 33.6 | – | 38.5 µM | – | 46.2 | – | 48.3 | – | > 62.2 | – | > 70.3 µM | – | 50.8 | – | 47 µM
COc1cc(/C=C/C(=O)c2ccc(Nc3nc(Nc4ccc(F)cc4)nc(Nc4ccc(F)cc4)n3)cc2)cc(OC)c1OC | 16.7 µM | > 100 µM | 15.8 µM | > 100 µM | > 100 µM | > 100 | 3.18 | > 100 µM | 1.81 | 35.2 | 41.2 | > 100 | 28.8 µM | > 100 | 11.8 µM | > 100 µM | 5.76 | > 100 | 7.11 µM | 61.1 µM
CO/N=C1/c2cc(OC)ccc2-c2c(NOC)nc3ccccc3c21 | 18 µM | 51 µM | 12.6 µM | 40.1 µM | 27.3 µM | > 100 | 21.3 | 88.2 µM | 40.6 | > 100 | 41.6 | > 100 | 32.8 µM | > 100 | 21.9 µM | 52.6 µM | 41.2 | > 100 | 28.2 µM | > 100 µM
Oc1ccc2ccccc2c1/C=N\Nc1ccccn1 | 1.4 µM | > 34.5 µM | 0.463 µM | > 43 µM | 1.24 µM | > 100 | 0.933 | > 100 µM | 0.654 | > 100 | 0.436 | > 100 | 0.64 µM | 2 | 0.529 µM | > 26.8 µM | 0.97 | > 100 | 1.72 µM | > 100 µM
CN(C)CCn1cc(-c2ccc3c(Nc4ccc(CC(=O)Nc5cccc(F)c5)cc4)ncnc3c2)cn1 | 1.92 µM | > 10 µM | 1.55 µM | 3.35 µM | 1.53 µM | 3.09 | 1.75 | 7.92 µM | 2.32 | 5.93 | 1.43 | 3.39 | 2.95 µM | > 10 | 0.0918 µM | 1.97 µM | 1.41 | 4.54 | 1.84 µM | 5.68 µM
Cc1ccc(/C=C(\C#N)n2nnc3cc(F)c(F)cc32)cc1 | 4.17 µM | 44.9 µM | 3.33 µM | 12.8 µM | 2.58 µM | 15.4 | 5.16 | 24.3 µM | 2.85 | 8.71 | 3.63 | 20.9 | 4.02 µM | 34.4 | 2.59 µM | 10.3 µM | 1.19 | 5.39 | 1.63 µM | 3.54 µM
CNCCNc1nc2ccccc2c2c(=O)c3cccc(OC)c3sc12 | 1.57 µM | 3.97 µM | 1.3 µM | 2.78 µM | 1.47 µM | 3.16 | 1.24 | 2.8 µM | 1.43 | 3.28 | 1.56 | 3.33 | 1.55 µM | 3.13 | 1.69 µM | 3.12 µM | 1.57 | 3.56 | 1.78 µM | 3.67 µM
C[n+]1c2ccccc2c(NC2CCNCC2)c2[nH]c3ccccc3c21 | 0.116 µM | 0.82 µM | 0.762 µM | 7.19 µM | 0.253 µM | 2.57 | 1.53 | 5.75 µM | 0.164 | 1.17 | 0.0378 | 0.773 | 0.64 µM | 8.32 | 1.48 µM | 6.83 µM | 0.217 | 2.04 | 5.41 µM | 23.7 µM
Cn1c(=O)c(F)c(Nc2ccc(I)cc2F)c2c(=O)n(C[C@@H](O)CO)cnc21 | 5.17 µM and 1.21 µM | 54.6 µM and > 3.97 µM | 0.0442 µM and 0.0456 µM | 8.98 µM and > 1.99 µM | 6.33 µM and 1.21 µM | > 100 | 16.4 | 71.5 µM and > 4.12 µM | 9.12 | > 91.8 | 10.4 | > 82.5 | 14.1 µM and > 2.11 µM | > 78.3 | 3.21 µM and 0.907 µM | 22.8 µM and > 4.07 µM | 18.2 | > 96.5 | < 0.01 µM and 0.00301 µM | < 0.01 µM and 0.0262 µM
